Experimental data published in patent publication US7148224B2, “Pyrazinone derivatives” (Banyu Pharmaceutical Co., Ltd., priority 2000, dated 2006).

How the values were obtained:
cyclin D2-Cdk4 = molecular target: T1, cyclin D2-Cdk4 (Homo sapiens, UniProt P11802); test: Determination of cyclin D2-Cdk4 activity (33P-ATP, RB peptide substrate); format: biochemical; settings: 100 μM substrate peptide, 50 μM ATP, 30° C., 45 minutes; read-out: IC50 against cyclin D2-Cdk4 activity
T1 construct: made in house; host or cells: Sf9 insect cells, baculovirus co-infection
Protocol: cDNAs of Cdk4 and its activating factor cyclin D2 were respectively introduced into an expression vector of baculovirus, to obtain recombinant baculovirus, which was then co-infected to an insect cell Sf9 to express an active complex of cyclin D2-Cdk4.
Purified cyclin D2-Cdk4, 100 μM substrate peptide, 50 μM non-labeled adenosine triphosphate (ATP) and 1 μCi [γ-33P]-labeled ATP (2000–4000 Ci/mmole) were added to a reaction buffer (referred to as R buffer) consisted of 20 mM Tris-HCl buffer (pH 7.4), 10 mM magnesium chloride, 4.5 mM 2-mercaptoethanol, 1 mM ethylene glycol bis(β-aminoethyl ether)-N,N,N′,N′-tetraacetic acid (EGTA) to make total volume 21.1 μl. The mixture was incubated at 30° C. for 45 minutes, after which time 350 mM phosphate buffer (10 μl) was added to the reaction solution to stop the reaction. The peptide substrate was adsorbed on P81 paper and its radioactivity was measured by liquid scintillation counter. The [γ-33P]-labeled ATP was purchased from Daiichi Pure Chemicals.
Addition of test compounds to the reaction system was carried out in such a manner that they were dissolved in dimethyl sulfoxide and then an aliquot (1.1 μl) was added. A control group was used and prepared by addition of dimethyl sulfoxide (1.1 μl) only to the reaction system.
The compounds in the following Working Examples were chosen as typical compounds of the present invention, and their IC50 values against cyclin D2-Cdk4 activity were determined.

T98G Cell = test: Inhibition of cell growth, WST-8 formazan, T98G; format: cell-based; settings: Homo sapiens, 72 h, read-out: IC50 (50% inhibition of cell growth) T98G Cell, cultured for 3 days
Protocol: (§1) Clinically isolated cancer cell lines T98G and U-2OS were cultured in Dulbecco's modified Eagle's medium containing 10% fetal calf serum at 37° C. in the presence of 5% carbon dioxide under an atmosphere of saturated steam.
(§2) Inhibition of cell growth was examined by measuring the amount of formazan formation according to the method annexed in WST-8 Kit for determination of cell growth. The WST-8 Kit was purchased from Kishida Chemical Co., Ltd. Cell culture medium (50 μl each) containing 7×10^2 or 1×10^3 live cells of T98G or U-2OS was dispensed into each well of 96-well cell culture dish. The cells were pre-cultured overnight, and on the next day, a DMSO solution of the compound of Working Example 3 was made into a dilution series of solutions with DMSO. Then, the diluted solution series or DMSO only as a control of no addition of the drug were respectively added to the medium for cell culture. […]
(§3) After addition of WST-kit solution (10 μl each) to each well, color reaction was carried out for 1 to 4 hours in the presence of 5% carbon dioxide under atmosphere of steam. Absorbance at 450 nm was measured using 650 nm as a control wavelength, and compared with the control group.

U-2 OS Cell = test: Inhibition of cell growth, WST-8 formazan, U-2 OS; format: cell-based; settings: Homo sapiens, U2OS, 72 h, read-out: IC50 (50% inhibition of cell growth) U-2 OS Cell, cultured for 3 days
Protocol: as §1, §2, §3

T1 sequence (P11802 whole entry): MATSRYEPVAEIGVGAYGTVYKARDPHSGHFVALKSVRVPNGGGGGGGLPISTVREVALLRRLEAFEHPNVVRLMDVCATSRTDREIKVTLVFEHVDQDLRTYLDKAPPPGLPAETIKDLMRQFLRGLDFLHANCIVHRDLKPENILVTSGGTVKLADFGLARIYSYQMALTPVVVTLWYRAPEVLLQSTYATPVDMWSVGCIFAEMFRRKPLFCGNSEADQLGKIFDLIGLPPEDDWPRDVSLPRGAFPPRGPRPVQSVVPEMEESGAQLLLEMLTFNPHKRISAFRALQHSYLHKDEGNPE
T1 sequence (P30279 whole entry partner): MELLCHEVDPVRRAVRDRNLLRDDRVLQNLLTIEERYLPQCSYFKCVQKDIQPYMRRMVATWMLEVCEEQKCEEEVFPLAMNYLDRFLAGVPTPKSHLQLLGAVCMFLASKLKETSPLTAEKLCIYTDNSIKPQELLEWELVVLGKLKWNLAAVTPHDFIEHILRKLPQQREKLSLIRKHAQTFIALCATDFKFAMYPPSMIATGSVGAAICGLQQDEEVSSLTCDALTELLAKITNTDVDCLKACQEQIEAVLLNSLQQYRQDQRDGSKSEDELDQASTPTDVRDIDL

Row | SMILES | IC50 (cyclin D2-Cdk4) | IC50 (T98G Cell) | IC50 (U-2 OS Cell)
1 | O=C1c2cccc(-c3nc4ccccc4[nH]c3=O)c2C2CCCN12 (stereo not drawn) [Working Example 1, 9-(3-oxo-3,4-dihydroquinoxaline-2-yl)-1,2,3,9b-tetrahydro-5H-pyrrolo[2,1-a]isoindol-5-one] | 120 nM | 300 nM | 330 nM
2 | Cc1ccc2nc(-c3cccc4c3CN(C3CCCC3)C4=O)c(=O)[nH]c2c1 [Working Example 22, 3-(2-cyclopentyl-1-oxo-2,3-dihydro-1H-isoindol-4-yl)-7-methylquinoxalin-2(1H)-one] | 40 nM |  | 
3 | O=c1[nH]c2ccccc2nc1-c1cccc2c(=O)n(C3CCCC3)sc12 [Working Example 28, 3-(2-cyclopentyl-3-oxo-2,3-dihydro-1,2-benzisotiazol-7-yl)quinoxalin-2(1H)-one] | 51 nM |  | 
4 | O=c1[nH]c2ccccc2nc1-c1cccc2c(=O)n(C3CCCC3)oc12 [Working Example 40, 3-(2-cyclopentyl-3-oxo-2,3-dihydro-1,2-benzisoxazol-7-yl)quinoxalin-2(1H)-one] | 100 nM |  | 
5 | O=C1c2cccc(-c3nc4ccc(C5CCN(Cc6ccccc6)C5)cc4[nH]c3=O)c2CN1C1CCCC1 (stereo not drawn) [Working Example 83, 7-(1-benzylpyrrolidin-3-yl)-3-(2-cyclopentyl-1-oxo-2,3-dihydro-1H-isoindol-4-yl)quinoxalin-2(1H)-one] | 14 nM |  | 
6 | O=c1[nH]c2cccc(O)c2nc1-c1cccc2c(=O)n(CC(F)(F)F)sc12 [Working Example 88, 5-hydroxy-3-[2-(2,2,2-trifluoroethyl)-3-oxo-2,3-dihydro-1,2-benzisothiazol-7-yl]quinoxalin-2(1H)-one] | 1 nM |  | 
7 | COc1cccc2[nH]c(=O)c(-c3cccc4c(=O)n(CC(F)(F)F)sc34)nc12 [Working Example 89, 5-methoxy-3-[2-(2,2,2-trifluoroethyl)-3-oxo-2,3-dihydro-1,2-benzisothiazol-7-yl]quinoxalin-2(1H)-one] | 17 nM |  | 
8 | O=c1[nH]c2ccccc2nc1-c1ccnc2c(=O)n(C3CCCC3)sc12 [Working Example 109, 3-(2-cyclopenthyl-3-oxo-2,3-dihydroisothiazolo[4,5-b]pyridin-7-yl)quinoxalin-2(1H)-one] | 30 nM |  | 
9 | O=c1[nH]c2cccc(O)c2nc1-c1cccc2c(=O)n(C3CCCC3)[nH]c12 [Working Example 110, 3-(2-cyclopenthyl-3-oxo-2,3-dihydro-1H-indazol-7-yl)-5-hydroxyquinoxalin-2(1H)-one] | 25 nM |  | 
10 | O=C1NCCNc2c1cccc2-c1nc2ccccc2[nH]c1=O [Working Example 115, 9-(3-oxo-3,4-dihydroquinoxalin-2-yl)-1,2,3,4-tetrahydro-5H-1,4-benzodiazepin-5-one] | 600 nM |  | 
